We go through 6 compounds from patent US20260200947A1, “FUSED CYCLIC COMPOUNDS AND USE THEREOF” (Jacobio Pharmaceuticals Co., Ltd., priority 2022, published 2026).

For orientation: IC50 means the point on the concentration scale where inhibition reaches its midpoint.

T2 sequence (P01116 1-169 isoform P01116-2 G12D): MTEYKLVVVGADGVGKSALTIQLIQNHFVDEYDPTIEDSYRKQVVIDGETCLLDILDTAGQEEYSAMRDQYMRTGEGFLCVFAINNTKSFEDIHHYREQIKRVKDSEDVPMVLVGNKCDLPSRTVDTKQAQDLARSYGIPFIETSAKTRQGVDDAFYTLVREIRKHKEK

The first assay has as its system SW620 cells (K-Ras G12V). Description: Phospho-ERK1/2(THR202/TYR204) HTRF assay, SW620. The note with it: 2 hours incubation, read-out: pERK, IC50, SW620. Type of assay: cell-based. (In general: TR-FRET usually uses a lanthanide donor and a delayed reading to cut background.)
Procedure: Each of cells in culture medium was seeded in 96-well plates at density indicated in Table 4 and put in a cell incubator to incubate overnight. The next day, the culture medium was removed and the compound diluted in assay medium was added in each well. […] 10 μL of cell lysates from the 96-well plates were transferred to a 384-well plate (Greiner) containing 2.5 μL/well HTRF® pre-mixed antibodies (Cisbio 64AERPEH). The plate was incubated 4 hours at 25° C. and read HTRF signals on Tecan Spark multimode microplate reader. The data were analyzed using a 4-parameter logistic model to calculate IC50 values.
On to `C=Cc1c(F)ccc2cc(N)cc(-c3nc4c5c(nc(OC[C@@]67CCCN6C[C@H](F)C7)nc5c3F)N3CCCOC[C@H]3CO4)c12` [Compound 6B], for which the IC50 was 16.2 nM.
`CCc1c(F)ccc2cc(N)cc(-c3nc4c5c(nc(OC[C@@]67CCCN6C[C@H](F)C7)nc5c3F)N3CCCOC[C@H]3CO4)c12` [Compound 6A]: the IC50 came to 12.5 nM.
The same measure, in the same setting: for `C#Cc1c(F)ccc2cc(N)cc(-c3nc4c5c(nc(OC[C@@]67CCCN6C[C@H](F)C7)nc5c3F)N3CCCOC[C@H]3[C@H](C)O4)c12` [Compound 18A] the value was 59.4 nM.

The same assay, now with this note: Homo sapiens, SW-620, 2 hours incubation, read-out: pERK, IC50, SW620.
For the compound `C#Cc1c(F)ccc2cc(N)cc(-c3nc4c5c(nc(OC[C@@]67CCCN6C[C@H](F)C7)nc5c3F)N3[C@@H](C)CCOC[C@H]3N4C3CC3)c12` [Compound 90], the IC50 came out at 9.38 nM.
The same measure, in the same setting: to `C#Cc1c(F)ccc2cc(N)cc(-c3nc4c5c(nc(OC[C@@]67CCCN6C[C@H](F)C7)nc5c3F)N3CCCOCC3N4C3CC3)c12` (some centres unmarked) [Compound 68] belongs 5.95 nM; to `CCc1c(F)ccc2cc(N)cc(-c3nc4c5c(nc(OC[C@@]67CCCN6C[C@H](F)C7)nc5c3F)N3[C@@H](C)CCOC[C@H]3N4C)c12` [Compound 127], 21.9 nM.

The target of a further assay is T1, GDP-KRAS G12D (Homo sapiens, UniProt P01116, G12D). Kind of assay: biochemical.
T1 sequence (P01116 1-169 isoform P01116-2 G12D): as above
Details: not given
On to `C#Cc1c(F)ccc2cc(N)cc(-c3nc4c5c(nc(OC[C@@]67CCCN6C[C@H](F)C7)nc5c3F)N3[C@@H](C)CCOC[C@H]3N4C3CC3)c12` [Compound 90], for which it took 3.72 nM to reach half-maximal inhibition (IC50).
For the compound `C#Cc1c(F)ccc2cc(N)cc(-c3nc4c5c(nc(OC[C@@]67CCCN6C[C@H](F)C7)nc5c3F)N3CCCOCC3N4C3CC3)c12` (some centres unmarked) [Compound 68], the half-maximal inhibitory concentration (IC50) came out at 2.18 nM.
The same measure, in the same setting: to `CCc1c(F)ccc2cc(N)cc(-c3nc4c5c(nc(OC[C@@]67CCCN6C[C@H](F)C7)nc5c3F)N3[C@@H](C)CCOC[C@H]3N4C)c12` [Compound 127] belongs 3.87 nM.

For a further assay, the system named is SW620 cells (K-Ras G12V).
Assay: not given
Details: not given
As to `C#Cc1c(F)ccc2cc(N)cc(-c3nc4c5c(nc(OC[C@@]67CCCN6C[C@H](F)C7)nc5c3F)N3[C@@H](C)CCOC[C@H]3N4C3CC3)c12` [Compound 90], inhibition was half-maximal at 40.6 nM (IC50).
`C#Cc1c(F)ccc2cc(N)cc(-c3nc4c5c(nc(OC[C@@]67CCCN6C[C@H](F)C7)nc5c3F)N3CCCOCC3N4C3CC3)c12` (some centres unmarked) [Compound 68] showed an IC50 of 39.3 nM.
For `CCc1c(F)ccc2cc(N)cc(-c3nc4c5c(nc(OC[C@@]67CCCN6C[C@H](F)C7)nc5c3F)N3[C@@H](C)CCOC[C@H]3N4C)c12` [Compound 127], 62.6 nM corresponded to half-maximal inhibition (IC50).
`C=Cc1c(F)ccc2cc(N)cc(-c3nc4c5c(nc(OC[C@@]67CCCN6C[C@H](F)C7)nc5c3F)N3CCCOC[C@H]3CO4)c12` [Compound 6B]: it took 28.3 nM to reach half-maximal inhibition (IC50).
In turn, `CCc1c(F)ccc2cc(N)cc(-c3nc4c5c(nc(OC[C@@]67CCCN6C[C@H](F)C7)nc5c3F)N3CCCOC[C@H]3CO4)c12` [Compound 6A] gave a half-maximal inhibitory concentration (IC50) of 26.4 nM.
With `C#Cc1c(F)ccc2cc(N)cc(-c3nc4c5c(nc(OC[C@@]67CCCN6C[C@H](F)C7)nc5c3F)N3CCCOC[C@H]3[C@H](C)O4)c12` [Compound 18A], the IC50 was found to be 62 nM.

A further assay addresses T2, GppNp-KRAS G12D (Homo sapiens, UniProt P01116, G12D). Description: GTP-K-Ras and cRAF interaction assay, GppNp-KRAS G12D. The settings on record: read-out: Biochemical assays, IC50, KRAS G12D GppNp; GppNp-loaded K-Ras G12D, cRAF RBD interaction, HTRF.
In the case of `C=Cc1c(F)ccc2cc(N)cc(-c3nc4c5c(nc(OC[C@@]67CCCN6C[C@H](F)C7)nc5c3F)N3CCCOC[C@H]3CO4)c12` [Compound 6B], the IC50 was 808 nM.
Take `CCc1c(F)ccc2cc(N)cc(-c3nc4c5c(nc(OC[C@@]67CCCN6C[C@H](F)C7)nc5c3F)N3CCCOC[C@H]3CO4)c12` [Compound 6A]: the IC50 was found to be 497 nM.

Another assay addresses T2, GppNp-KRAS G12D. Description: biochemical.
Details: not given
Take `C#Cc1c(F)ccc2cc(N)cc(-c3nc4c5c(nc(OC[C@@]67CCCN6C[C@H](F)C7)nc5c3F)N3[C@@H](C)CCOC[C@H]3N4C3CC3)c12` [Compound 90]: the IC50 was 190 nM.
As for `C#Cc1c(F)ccc2cc(N)cc(-c3nc4c5c(nc(OC[C@@]67CCCN6C[C@H](F)C7)nc5c3F)N3CCCOCC3N4C3CC3)c12` (some centres unmarked) [Compound 68], the IC50 amounted to 187 nM.
With `CCc1c(F)ccc2cc(N)cc(-c3nc4c5c(nc(OC[C@@]67CCCN6C[C@H](F)C7)nc5c3F)N3[C@@H](C)CCOC[C@H]3N4C)c12` [Compound 127], the IC50 came out at 299 nM.

Another assay deals with GppNp-KRAS G12V (Homo sapiens, UniProt P01116, G12V). Kind of assay: biochemical.
GppNp-KRAS G12V, sequence (P01116 1-169 isoform P01116-2 G12V): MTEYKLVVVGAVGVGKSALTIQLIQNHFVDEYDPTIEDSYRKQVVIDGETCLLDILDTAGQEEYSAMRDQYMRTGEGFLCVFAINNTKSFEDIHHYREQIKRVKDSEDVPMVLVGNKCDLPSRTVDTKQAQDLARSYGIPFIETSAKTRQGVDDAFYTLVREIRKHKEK
Details: not given
In the case of `C#Cc1c(F)ccc2cc(N)cc(-c3nc4c5c(nc(OC[C@@]67CCCN6C[C@H](F)C7)nc5c3F)N3[C@@H](C)CCOC[C@H]3N4C3CC3)c12` [Compound 90], the concentration for half-maximal inhibition (IC50) is 898 nM.
On the same count and under the same terms, to `C#Cc1c(F)ccc2cc(N)cc(-c3nc4c5c(nc(OC[C@@]67CCCN6C[C@H](F)C7)nc5c3F)N3CCCOCC3N4C3CC3)c12` (some centres unmarked) [Compound 68] belongs 356 nM; to `CCc1c(F)ccc2cc(N)cc(-c3nc4c5c(nc(OC[C@@]67CCCN6C[C@H](F)C7)nc5c3F)N3[C@@H](C)CCOC[C@H]3N4C)c12` [Compound 127], greater than 1000 nM.

The next assay addresses T1, GDP-KRAS G12D. Description: SOS1 catalyzed nucleotide exchange assay, GDP-KRAS G12D. The note with it: read-out: Biochemical assays, IC50, KRAS G12D GDP, GDP form K-Ras G12D, TR-FRET.
For the compound `C=Cc1c(F)ccc2cc(N)cc(-c3nc4c5c(nc(OC[C@@]67CCCN6C[C@H](F)C7)nc5c3F)N3CCCOC[C@H]3CO4)c12` [Compound 6B], the IC50 turned out to be 3.83 nM.
Still for that read-out and setting: for `CCc1c(F)ccc2cc(N)cc(-c3nc4c5c(nc(OC[C@@]67CCCN6C[C@H](F)C7)nc5c3F)N3CCCOC[C@H]3CO4)c12` [Compound 6A] the value was 1.24 nM.
Same read-out and setting: to `C#Cc1c(F)ccc2cc(N)cc(-c3nc4c5c(nc(OC[C@@]67CCCN6C[C@H](F)C7)nc5c3F)N3CCCOC[C@H]3[C@H](C)O4)c12` [Compound 18A] belongs 5.42 nM.

Another assay deals with T3, GDP-KRAS G12V (Homo sapiens, UniProt P01116, G12V). Kind of assay: SOS1 catalyzed nucleotide exchange assay, GDP-KRAS G12V. The settings on record: read-out: Biochemical assays, IC50, KRAS G12V GDP, GDP form K-Ras G12V, TR-FRET.
T3 sequence (P01116 1-169 isoform P01116-2 G12V): as above
For `C=Cc1c(F)ccc2cc(N)cc(-c3nc4c5c(nc(OC[C@@]67CCCN6C[C@H](F)C7)nc5c3F)N3CCCOC[C@H]3CO4)c12` [Compound 6B], the IC50 turned out to be 3.82 nM.
The same measure, in the same setting: to `CCc1c(F)ccc2cc(N)cc(-c3nc4c5c(nc(OC[C@@]67CCCN6C[C@H](F)C7)nc5c3F)N3CCCOC[C@H]3CO4)c12` [Compound 6A] belongs 3.37 nM; to `C#Cc1c(F)ccc2cc(N)cc(-c3nc4c5c(nc(OC[C@@]67CCCN6C[C@H](F)C7)nc5c3F)N3CCCOC[C@H]3[C@H](C)O4)c12` [Compound 18A], 4.72 nM.

In another assay the target is T3, GDP-KRAS G12V. Description: biochemical.
Details: not given
With `C#Cc1c(F)ccc2cc(N)cc(-c3nc4c5c(nc(OC[C@@]67CCCN6C[C@H](F)C7)nc5c3F)N3[C@@H](C)CCOC[C@H]3N4C3CC3)c12` [Compound 90], inhibition was half-maximal at 1.28 nM (IC50).
The same measure, in the same setting: for `C#Cc1c(F)ccc2cc(N)cc(-c3nc4c5c(nc(OC[C@@]67CCCN6C[C@H](F)C7)nc5c3F)N3CCCOCC3N4C3CC3)c12` (some centres unmarked) [Compound 68] the value was 3.49 nM.
On the same count and under the same terms, for `CCc1c(F)ccc2cc(N)cc(-c3nc4c5c(nc(OC[C@@]67CCCN6C[C@H](F)C7)nc5c3F)N3[C@@H](C)CCOC[C@H]3N4C)c12` [Compound 127] the value was 2.13 nM.

In a further assay the test system is AsPC-1 cells (K-Ras G12D).
Assay: not given
Details: not given
Take `C#Cc1c(F)ccc2cc(N)cc(-c3nc4c5c(nc(OC[C@@]67CCCN6C[C@H](F)C7)nc5c3F)N3[C@@H](C)CCOC[C@H]3N4C3CC3)c12` [Compound 90]: half-maximal inhibition (IC50) was put at 415 nM.
The same measure, in the same setting: to `C#Cc1c(F)ccc2cc(N)cc(-c3nc4c5c(nc(OC[C@@]67CCCN6C[C@H](F)C7)nc5c3F)N3CCCOCC3N4C3CC3)c12` (some centres unmarked) [Compound 68] belongs 169 nM; to `CCc1c(F)ccc2cc(N)cc(-c3nc4c5c(nc(OC[C@@]67CCCN6C[C@H](F)C7)nc5c3F)N3[C@@H](C)CCOC[C@H]3N4C)c12` [Compound 127], 173 nM; to `C=Cc1c(F)ccc2cc(N)cc(-c3nc4c5c(nc(OC[C@@]67CCCN6C[C@H](F)C7)nc5c3F)N3CCCOC[C@H]3CO4)c12` [Compound 6B], 266 nM.
In turn, `CCc1c(F)ccc2cc(N)cc(-c3nc4c5c(nc(OC[C@@]67CCCN6C[C@H](F)C7)nc5c3F)N3CCCOC[C@H]3CO4)c12` [Compound 6A] showed an IC50 of 175 nM.
In the case of `C#Cc1c(F)ccc2cc(N)cc(-c3nc4c5c(nc(OC[C@@]67CCCN6C[C@H](F)C7)nc5c3F)N3CCCOC[C@H]3[C@H](C)O4)c12` [Compound 18A], 391 nM corresponded to half-maximal inhibition (IC50).
